The source made the active and inactive calls. No cut-off for these calls is given here.
Tests used:
[1] = tested on: Spermatozoa; experiment: Spermicidal activity against boar sperm at 50 ug/mL assessed as time required for sperm death; type: functional, cell-based; conditions: Sus scrofa
[2] = tested on: Spermatozoa; experiment: Spermicidal activity against rat sperm at 200 ug/mL assessed as time required for sperm death; type: functional
[3] = tested on: Spermatozoa; experiment: Spermicidal activity against horse sperm at 800 ug/mL assessed as time required for sperm death; type: functional, Equus caballus
[4] = tested on: Spermatozoa; experiment: Spermicidal activity against bovine spermatozoa at 800 ug/mL assessed as time required for sperm death; type: functional, Bos taurus
[5] = tested on: Spermatozoa; experiment: Spermicidal activity against boar sperm at 200 ug/mL assessed as time required for sperm death; type: functional, Sus scrofa

SMILES | Activity [1] | Time [2] [min] | Time [3] [min] | Time [4] [min] | Time [5] [min]
C/C=C(\NC(=O)C(=O)CC)C(=O)N1CCC[C@H]1C(=O)N[C@@H](C)C(=O)N/C(=C\C)C(=O)N1CCC[C@H]1C(=O)N[C@@H](C)C(=O)N[C@H](C(=O)N[C@H](C)C(=O)N[C@H](C(=O)N[C@@H](CC(C)C)C(=O)N[C@H](C)C(=O)N[C@@H](C)C(=O)N[C@@H](Cc1ccc(O)cc1)C(=O)N[C@H](C(=O)N[C@H]1CSC[C@H](C(=O)N2CCC[C@H]2C(=O)N[C@H]2C(=O)N[C@@H]([C@@H](C)O)C(=O)N[C@@H](CCCCN)C(=O)N[C@H](C(=O)N[C@H]3C(=O)N[C@@H](CCCNC(=N)N)C(=O)N[C@@H](C)C(=O)N[C@@H](C(=O)O)CSC3C)CSC2C)NC(=O)[C@H]([C@@H](C)O)NC(=O)[C@H](CC(N)=O)NC(=O)[C@H]([C@@H](C)O)NC1=O)[C@@H](C)CC)[C@@H](C)CC)[C@@H](C)CC (stereo not given in full) | Active |  |  |  | 
C/C=C(\NC(=O)C(=O)CC)C(=O)N1CCC[C@H]1C(=O)N[C@@H](C)C(=O)N/C(=C\C)C(=O)N1CCC[C@H]1C(=O)N[C@@H](C)C(=O)N[C@H](C(=O)N[C@H](C)C(=O)N[C@H](C(=O)N[C@@H](CC(C)C)C(=O)N[C@H](C)C(=O)N[C@@H](C)C(=O)N[C@@H](Cc1ccc(O)cc1)C(=O)N[C@H](C(=O)N[C@@H]1CSC[C@@H](C(=O)N2CCC[C@H]2C(=O)N[C@H]2C(=O)N[C@@H]([C@@H](C)O)C(=O)N[C@@H](CCCCN)C(=O)N[C@H](C(=O)N[C@H]3C(=O)N[C@@H](CCCNC(=N)N)C(=O)N[C@@H](C)C(=O)N[C@H](C(=O)O)CSC3C)CSC2C)NC(=O)[C@H]([C@@H](C)O)NC(=O)[C@H](CC(N)=O)NC(=O)[C@H]([C@@H](C)O)NC1=O)[C@@H](C)CC)[C@@H](C)CC)[C@@H](C)CC (stereo not given in full) |  | 2 | 4.8 | 2.5 | 1.8
C/C=C(\NC(=O)[C@H](CC(N)=O)NC(=O)/C(=C/C)NC(=O)[C@H]1CSC[C@H](N)C(=O)N1)C(=O)N[C@@H](Cc1ccccc1)C(=O)N[C@H](C)C(=O)N[C@@H](CC(C)C)C(=O)N[C@@H]1CSC[C@@H](C(=O)N[C@H]2C(=O)N[C@@H](CC(C)C)C(=O)N[C@H]3C(=O)N[C@@H](Cc4cnc[nH]4)C(=O)N[C@@H](CCC(=O)O)C(=O)N[C@@H](CS[C@H]2C)C(=O)N[C@@H](CCSC)C(=O)N[C@@H](C)C(=O)N[C@@H](Cc2c[nH]c4ccccc24)C(=O)N[C@H](C(=O)N[C@@H](CCCCN)C(=O)O)CS[C@H]3C)NC(=O)[C@H](Cc2c[nH]c3ccccc23)NC(=O)[C@H](C)NC(=O)CNC(=O)[C@H](CC(N)=O)NC(=O)[C@H](CC(N)=O)NC(=O)CNC(=O)[C@H](Cc2c[nH]c3ccccc23)NC(=O)[C@H](Cc2ccc(O)cc2)NC(=O)[C@H](CC(=O)O)NC1=O |  | 2.3 | 12.7 | 16.6 | 2.5
C/C=C(\NC(=O)[C@H](CC(N)=O)NC(=O)/C(=C\C)NC(=O)[C@H](C)NC(=O)[C@H](C)N)C(=O)N[C@@H](Cc1ccccc1)C(=O)N[C@H](C)C(=O)N[C@@H](CC(C)C)C(=O)N[C@@H]1CSC[C@H](C(=O)N[C@H]2C(=O)N[C@@H](CC(C)C)C(=O)N[C@H]3C(=O)N[C@@H](Cc4cnc[nH]4)C(=O)N[C@@H](CCC(=O)O)C(=O)N[C@@H](CCS[C@H]2C)C(=O)N[C@@H](CCSC)C(=O)N[C@@H](C)C(=O)N[C@@H](Cc2c[nH]c4ccccc24)C(=O)N[C@H](C(=O)N[C@@H](CCCCN)C(=O)O)CSC3C)NC(=O)[C@H](Cc2c[nH]c3ccccc23)NC(=O)[C@H](C)NC(=O)CNC(=O)[C@H](CC(N)=O)NC(=O)[C@H](CC(N)=O)NC(=O)CNC(=O)[C@H](Cc2c[nH]c3ccccc23)NC(=O)[C@H](Cc2ccc(O)cc2)NC(=O)[C@H](CC(=O)O)NC1=O (stereo not given in full) | Active |  |  |  | 
